Data on 15 molecules can be found in ChEMBL document CHEMBL1165890, “Inside HDAC with HDAC inhibitors” (Eur J Med Chem, 2010).

For orientation: IC50 means the concentration at which inhibition is half-maximal. By inhibition in vivo is commonly meant the drop in the measured response relative to a control, in per cent. High values mean a response far below the control, low ones a response near the control.

The target in one assay is Histone deacetylase. The settings on record: hela.
In another assay the target is T1, Histone deacetylase 8 (Homo sapiens, UniProt Q9BY41).
T1 sequence (Q9BY41 whole entry): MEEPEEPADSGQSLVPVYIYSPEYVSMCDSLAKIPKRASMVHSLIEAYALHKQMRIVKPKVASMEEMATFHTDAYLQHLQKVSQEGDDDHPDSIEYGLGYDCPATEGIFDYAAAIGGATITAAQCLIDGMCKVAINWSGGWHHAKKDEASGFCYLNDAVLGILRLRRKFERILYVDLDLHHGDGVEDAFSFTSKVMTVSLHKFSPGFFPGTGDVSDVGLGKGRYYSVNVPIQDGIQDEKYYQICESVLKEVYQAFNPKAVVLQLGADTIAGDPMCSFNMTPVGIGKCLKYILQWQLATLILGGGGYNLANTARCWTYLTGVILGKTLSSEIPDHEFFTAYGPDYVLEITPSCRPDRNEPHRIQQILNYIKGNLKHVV
The assay can be described thus: Inhibition of recombinant HDAC8.

For assay [1], the target named is T2, Polyamine deacetylase HDAC10 (Homo sapiens, UniProt Q969S8).
T2 sequence (Q969S8 whole entry): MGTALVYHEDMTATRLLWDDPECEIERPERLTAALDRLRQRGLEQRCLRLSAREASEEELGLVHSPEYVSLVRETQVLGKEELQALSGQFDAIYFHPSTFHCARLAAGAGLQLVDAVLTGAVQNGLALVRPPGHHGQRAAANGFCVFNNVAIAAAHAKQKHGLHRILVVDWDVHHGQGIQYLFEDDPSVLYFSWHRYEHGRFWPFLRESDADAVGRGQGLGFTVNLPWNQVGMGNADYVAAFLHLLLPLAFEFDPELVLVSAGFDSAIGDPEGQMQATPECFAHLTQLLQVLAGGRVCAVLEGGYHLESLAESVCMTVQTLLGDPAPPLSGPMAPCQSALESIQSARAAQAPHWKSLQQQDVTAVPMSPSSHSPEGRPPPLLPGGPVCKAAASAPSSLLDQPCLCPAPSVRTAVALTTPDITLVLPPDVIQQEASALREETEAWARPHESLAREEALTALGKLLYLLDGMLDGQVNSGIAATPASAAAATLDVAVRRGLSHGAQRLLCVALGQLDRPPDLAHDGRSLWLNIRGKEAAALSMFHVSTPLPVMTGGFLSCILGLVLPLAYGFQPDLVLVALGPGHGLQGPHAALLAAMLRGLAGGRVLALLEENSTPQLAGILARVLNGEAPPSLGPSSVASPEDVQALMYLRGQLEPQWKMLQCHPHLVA
The assay can be described thus: Inhibition of HDAC10.

For a further assay, the system named is HCT-116. The assay can be described thus: Antitumor activity against human HCT116 cells xenografted in mouse at 30 mg/kg. The class given is functional.
The next assay addresses Histone deacetylase 3 (Homo sapiens, UniProt O15379). The assay can be described thus: Inhibition of recombinant HDAC3.
In assay [2] the target is T3, Protein deacetylase HDAC6 (Homo sapiens, UniProt Q9UBN7).
T3 sequence (Q9UBN7 whole entry): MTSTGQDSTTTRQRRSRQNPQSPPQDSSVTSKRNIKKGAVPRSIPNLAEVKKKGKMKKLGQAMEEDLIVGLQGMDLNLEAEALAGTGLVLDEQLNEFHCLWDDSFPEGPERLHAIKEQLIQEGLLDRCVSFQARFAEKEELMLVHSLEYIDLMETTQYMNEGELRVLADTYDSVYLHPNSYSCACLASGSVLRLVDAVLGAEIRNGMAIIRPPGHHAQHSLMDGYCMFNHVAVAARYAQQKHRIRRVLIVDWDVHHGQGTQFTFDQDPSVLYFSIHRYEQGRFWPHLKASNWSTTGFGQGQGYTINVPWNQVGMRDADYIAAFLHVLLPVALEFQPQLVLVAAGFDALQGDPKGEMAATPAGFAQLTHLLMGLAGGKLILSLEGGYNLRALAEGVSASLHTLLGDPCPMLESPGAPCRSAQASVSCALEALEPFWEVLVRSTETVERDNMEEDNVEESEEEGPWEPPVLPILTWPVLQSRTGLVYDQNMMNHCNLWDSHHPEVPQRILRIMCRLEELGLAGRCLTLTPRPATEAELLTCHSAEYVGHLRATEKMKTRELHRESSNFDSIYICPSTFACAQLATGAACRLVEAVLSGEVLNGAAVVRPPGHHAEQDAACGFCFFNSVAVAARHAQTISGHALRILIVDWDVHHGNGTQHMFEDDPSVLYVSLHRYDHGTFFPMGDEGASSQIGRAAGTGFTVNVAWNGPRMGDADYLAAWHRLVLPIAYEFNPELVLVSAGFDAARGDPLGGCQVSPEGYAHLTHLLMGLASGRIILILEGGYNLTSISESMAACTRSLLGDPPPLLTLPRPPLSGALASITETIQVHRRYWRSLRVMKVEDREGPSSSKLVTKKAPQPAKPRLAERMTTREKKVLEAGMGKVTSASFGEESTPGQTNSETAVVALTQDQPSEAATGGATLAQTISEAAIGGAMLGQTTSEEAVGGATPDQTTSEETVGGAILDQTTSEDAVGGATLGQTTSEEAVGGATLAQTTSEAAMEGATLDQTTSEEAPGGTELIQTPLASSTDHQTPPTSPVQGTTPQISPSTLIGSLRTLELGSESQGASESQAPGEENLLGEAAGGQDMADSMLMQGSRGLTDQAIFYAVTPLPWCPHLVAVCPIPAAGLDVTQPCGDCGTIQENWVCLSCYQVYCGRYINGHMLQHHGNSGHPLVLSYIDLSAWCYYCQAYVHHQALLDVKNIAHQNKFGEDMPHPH
In words: Inhibition of recombinant HDAC6.

The target in the next assay is Histone deacetylase 2 (Homo sapiens, UniProt Q92769). In words: Inhibition of recombinant HDAC2.
Sequence of Histone deacetylase 2 (Q92769 whole entry): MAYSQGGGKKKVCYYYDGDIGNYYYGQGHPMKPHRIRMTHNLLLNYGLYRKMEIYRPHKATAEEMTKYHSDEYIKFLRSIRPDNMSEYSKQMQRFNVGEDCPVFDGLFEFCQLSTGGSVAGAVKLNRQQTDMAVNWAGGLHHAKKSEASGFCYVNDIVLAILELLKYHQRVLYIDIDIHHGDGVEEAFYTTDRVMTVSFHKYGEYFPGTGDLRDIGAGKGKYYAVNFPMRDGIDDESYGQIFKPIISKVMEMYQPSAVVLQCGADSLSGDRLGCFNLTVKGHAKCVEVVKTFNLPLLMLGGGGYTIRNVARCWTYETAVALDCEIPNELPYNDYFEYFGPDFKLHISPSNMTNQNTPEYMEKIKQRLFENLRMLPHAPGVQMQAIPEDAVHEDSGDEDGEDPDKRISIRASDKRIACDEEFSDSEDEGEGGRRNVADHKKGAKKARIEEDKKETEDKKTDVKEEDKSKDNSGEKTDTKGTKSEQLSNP
The target of a further assay is Histone deacetylase 1 (Homo sapiens, UniProt Q13547). The assay can be described thus: Inhibition of recombinant HDAC1.
Sequence of Histone deacetylase 1 (Q13547 whole entry): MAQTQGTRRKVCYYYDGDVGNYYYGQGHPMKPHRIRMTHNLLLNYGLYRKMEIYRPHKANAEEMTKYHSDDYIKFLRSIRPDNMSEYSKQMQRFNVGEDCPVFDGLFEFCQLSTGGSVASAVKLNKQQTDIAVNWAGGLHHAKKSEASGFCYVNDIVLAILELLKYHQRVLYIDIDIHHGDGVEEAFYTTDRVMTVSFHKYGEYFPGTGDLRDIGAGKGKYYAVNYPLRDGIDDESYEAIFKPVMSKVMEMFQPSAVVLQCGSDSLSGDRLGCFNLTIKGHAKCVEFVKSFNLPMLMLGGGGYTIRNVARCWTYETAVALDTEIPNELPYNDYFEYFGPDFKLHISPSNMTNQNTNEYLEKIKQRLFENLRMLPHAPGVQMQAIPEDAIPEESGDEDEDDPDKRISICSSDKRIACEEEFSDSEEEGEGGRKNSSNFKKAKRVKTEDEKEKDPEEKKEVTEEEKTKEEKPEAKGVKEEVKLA

Structures are written as SMILES. Non-standard residues stand in square brackets, D forms with d. Residues, ends and D or L forms follow the SMILES beside them. *: point of attachment. Ala(indol-2-yl) = N[C@@H](Cc1cc2ccccc2[nH]1)C(=O)O; Asu = N[C@@H](CCCCCC(=O)O)C(=O)O; β3hI = CC[C@H](C)[C@H](N)CC(=O)O; NHOH = ON* Bounds are passed on as bounds.

Sequence of Histone deacetylase 3 (O15379 whole entry): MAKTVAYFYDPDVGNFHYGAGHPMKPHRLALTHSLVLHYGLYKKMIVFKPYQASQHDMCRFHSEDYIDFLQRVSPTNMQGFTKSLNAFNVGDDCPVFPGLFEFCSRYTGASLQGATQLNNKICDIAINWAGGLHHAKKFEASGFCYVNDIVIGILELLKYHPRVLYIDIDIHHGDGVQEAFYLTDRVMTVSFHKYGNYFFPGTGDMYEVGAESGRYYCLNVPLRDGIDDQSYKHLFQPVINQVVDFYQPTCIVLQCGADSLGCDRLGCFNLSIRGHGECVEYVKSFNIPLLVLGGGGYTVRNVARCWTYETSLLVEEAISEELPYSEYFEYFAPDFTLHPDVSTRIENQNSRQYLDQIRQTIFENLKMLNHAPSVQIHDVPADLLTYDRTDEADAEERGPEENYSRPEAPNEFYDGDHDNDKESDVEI

As to `CC[C@H](C)[C@H]1CC(=O)NCC(=O)N[C@@H](CCCCCC(N)=O)C(=O)N[C@@H](Cc2cc3ccccc3[nH]2)C(=O)N1` (cyclo([Asu](NH2)[Ala(indol-2-yl)][β3hI]G)), the IC50 against Histone deacetylase was 2700 nM.

As for `O=C(CS)NCCCCCC(=O)Nc1ccc2ncccc2c1`, the IC50 against Histone deacetylase stood at 900 nM.

Regarding `CC(=O)Nc1ccc(C(=O)Nc2cc(-c3cccs3)ccc2N)cc1`, the IC50 at Histone deacetylase 8 was more than 20000 nM.

Consider `Cn1c(/C=C/C(=O)NO)ccc1C(=O)c1ccccc1`, for which the half-maximal inhibitory concentration (IC50) in assay [1] stood at 280 nM.

Take `CCC(=O)CCCCC[C@@H]1NC(=O)CNC(=O)C[C@H]([C@@H](C)CC)NC(=O)[C@H](Cc2cc3ccccc3[nH]2)N(C)C1=O`: the IC50 against Histone deacetylase is more than 10000 nM.

For `CC(=O)Nc1ccc(C(=O)Nc2ccccc2N)cc1` [TACEDINALINE], the inhibition in vivo at 30 mg/kg in the assay with HCT-116 stood at 52%.

With `Cn1cc(/C=C/C(=O)NO)cc1C(=O)c1ccccc1`, in assay [1], half-maximal inhibition (IC50) was put at 50 nM.

As for `CC[C@H](C)[C@H]1CC(=O)NCC(=O)N[C@@H](CCCCCC(=O)NO)C(=O)N[C@@H](Cc2cc3ccccc3[nH]2)C(=O)N1` (cyclo([Asu](NHOH)[Ala(indol-2-yl)][β3hI]G)), the IC50 against Histone deacetylase is less than 1 nM.

Consider `CCC(=O)CCCCC[C@@H]1NC(=O)[C@H](C)NC(=O)C[C@H]([C@@H](C)CC)NC(=O)[C@H](Cc2cc3ccccc3[nH]2)NC1=O`, for which the IC50 against Histone deacetylase turned out to be 40 nM.

On to `O=C(CS)NCCCCCC(=O)Nc1cccc2cccnc12`, for which, on Histone deacetylase, the IC50 was found to be 900 nM.

For `COc1ccc(C(=O)Nc2cc(-c3cccs3)ccc2N)cc1`, the IC50 (at Histone deacetylase 3; in assay [2]; on Histone deacetylase 8) was more than 20000 nM throughout.

`CC[C@H](C)[C@H]1CC(=O)NCC(=O)N[C@@H](CCCCCC(=O)O)C(=O)N[C@@H](Cc2cc3ccccc3[nH]2)C(=O)N1` (cyclo([Asu][Ala(indol-2-yl)][β3hI]G)) came in with an IC50 on Histone deacetylase of 300 nM.

On to `N=C/C=N/c1ccc(C(=O)Nc2cc(-c3cccs3)ccc2N)cc1`, for which the half-inhibitory concentration (IC50) on Histone deacetylase 2 was 20 nM; on Histone deacetylase 3, more than 20000 nM; at Histone deacetylase 1, 60 nM; in assay [2] it was more than 20000 nM; on Histone deacetylase 8 it was more than 20000 nM.

`CCC(=O)CCCCC[C@@H]1NC(=O)CNC(=O)C[C@H]([C@@H](C)CC)N(C)C(=O)[C@H](Cc2cc3ccccc3[nH]2)NC1=O` displayed an IC50 against Histone deacetylase of 2000 nM.

Regarding `CCC(=O)CCCCC[C@@H]1NC(=O)CNC(=O)C[C@H]([C@@H](C)CC)NC(=O)[C@H](Cc2cc3ccccc3[nH]2)NC1=O`, at Histone deacetylase, the IC50 was determined as 19 nM.
